Source: patent US4163780A (Kirin-Seagram Limited, priority 1977, dated 1979)

Tested on: influenza A2 -Kumamoto/Y5 (H2 N2) virus
Type: in vivo, influenza virus; DDI mice
Conditions: Virazole 50 mg/kg, intraperitoneal, 15 times

NC(=O)c1ncn([C@@H]2O[C@H](CO)[C@@H](O)[C@H]2O)n1 [Virazole]
Average of survival days: > 16.9 days | Survival percentage: 30%
